Assay results from patent US20240109880A1 (Insilico Medicine IP Limited, priority 2021, published 2024).
≈ marks a conversion by molar mass, not a printed value.

How the values were obtained:
[1] = Kinetic solubility in 50 mM phosphate buffer (pH 7.4); type: physicochemical; settings: for solubility kinetic at 24 h: aqueous buffer, kinetic from dmso stock, 50 mM phosphate buffer pH 7.4, 24 hours at room temperature
Experimental: 10 μL of 10 mM in DMSO of test and control compounds was added into lower chambers of whatman miniuniprep vials, respectively. 490 μL of 50 mM PB (pH 7.4) was added into lower chambers of the whatman miniuniprep vials, respectively. The solubility samples were vortexted for at least 2 minutes. The miniuniprep vials were shaken on a shaker for 24 hours at room temperature at the speed of 800 rpm and then centrifuged for 20 minutes (eg. 4000 rpm). The miniunipreps were compressed to prepare the filtrates for injection into HPLC system to calculate the concentration with standard curve.

[2] = Permeability in Caco-2 Assay; type: in vitro ADME; settings: human, pH 7.4, 2 hours; for efflux ratio at 2 h, 2 μM: Caco-2, 2.00 μM bi-directionally; for Papp A→B at 2 h, 2 μM: Caco-2, 2.00 μM, pH 7.40
Experimental: (§1) Permeability of test compounds was determined in Caco-2 Assay. Caco-2 cells purchased from ATCC were seeded onto […] (PET) in 96-well Corning Insert plates at 1×10^5 cells/cm2, and refreshed medium every 4-5 days until to the 21st to 28th day for confluent cell monolayer formation. The transport buffer in the study was HBSS with 10.0 mM HEPES at pH 7.40±0.05. Test compound was tested at 2.00 μM bi-directionally in duplicate. Digoxin was tested at 10.0 μM bi-directionally in duplicate, while nadolol and metoprolol were tested at 2.00 μM in A to B direction in duplicate. Final DMSO concentration was adjusted to less than 1%. The plate was incubated for 2 hours in CO2 incubator at 37±1° C., with 5% CO2 at saturated humidity without shaking. And all samples after mixed with acetonitrile containing internal standard were centrifuged at 3200×g for 10 min. For nadolol and metoprolol, 200 μL supernatant solution was diluted with 600 μL ultra-pure water for LC-MS/MS analysis. For digoxin and test compounds, 200 μL supernatant solution was diluted with 200 μL ultra-pure water for LC-MS/MS analysis. Concentrations of test and control compounds in starting solution, donor solution, and receiver solution were quantified by LC-MS/MS methodologies, using peak area ratio of analyte/internal standard. After transport assay, lucifer yellow rejection assay was applied to determine the Caco-2 cell monolayer integrity.

KAT6A = KAT6A (Homo sapiens (Human), UniProt Q92794); assay: KAT6A Biochemical Assay (radiometric 384-well, [3H]-Ac-CoA, biotinylated H4(1-30) peptide); settings: 5 nM KAT6A enzyme solution (2×), 60 min reaction at room temperature
KAT6A, sequence (Q92794 whole entry): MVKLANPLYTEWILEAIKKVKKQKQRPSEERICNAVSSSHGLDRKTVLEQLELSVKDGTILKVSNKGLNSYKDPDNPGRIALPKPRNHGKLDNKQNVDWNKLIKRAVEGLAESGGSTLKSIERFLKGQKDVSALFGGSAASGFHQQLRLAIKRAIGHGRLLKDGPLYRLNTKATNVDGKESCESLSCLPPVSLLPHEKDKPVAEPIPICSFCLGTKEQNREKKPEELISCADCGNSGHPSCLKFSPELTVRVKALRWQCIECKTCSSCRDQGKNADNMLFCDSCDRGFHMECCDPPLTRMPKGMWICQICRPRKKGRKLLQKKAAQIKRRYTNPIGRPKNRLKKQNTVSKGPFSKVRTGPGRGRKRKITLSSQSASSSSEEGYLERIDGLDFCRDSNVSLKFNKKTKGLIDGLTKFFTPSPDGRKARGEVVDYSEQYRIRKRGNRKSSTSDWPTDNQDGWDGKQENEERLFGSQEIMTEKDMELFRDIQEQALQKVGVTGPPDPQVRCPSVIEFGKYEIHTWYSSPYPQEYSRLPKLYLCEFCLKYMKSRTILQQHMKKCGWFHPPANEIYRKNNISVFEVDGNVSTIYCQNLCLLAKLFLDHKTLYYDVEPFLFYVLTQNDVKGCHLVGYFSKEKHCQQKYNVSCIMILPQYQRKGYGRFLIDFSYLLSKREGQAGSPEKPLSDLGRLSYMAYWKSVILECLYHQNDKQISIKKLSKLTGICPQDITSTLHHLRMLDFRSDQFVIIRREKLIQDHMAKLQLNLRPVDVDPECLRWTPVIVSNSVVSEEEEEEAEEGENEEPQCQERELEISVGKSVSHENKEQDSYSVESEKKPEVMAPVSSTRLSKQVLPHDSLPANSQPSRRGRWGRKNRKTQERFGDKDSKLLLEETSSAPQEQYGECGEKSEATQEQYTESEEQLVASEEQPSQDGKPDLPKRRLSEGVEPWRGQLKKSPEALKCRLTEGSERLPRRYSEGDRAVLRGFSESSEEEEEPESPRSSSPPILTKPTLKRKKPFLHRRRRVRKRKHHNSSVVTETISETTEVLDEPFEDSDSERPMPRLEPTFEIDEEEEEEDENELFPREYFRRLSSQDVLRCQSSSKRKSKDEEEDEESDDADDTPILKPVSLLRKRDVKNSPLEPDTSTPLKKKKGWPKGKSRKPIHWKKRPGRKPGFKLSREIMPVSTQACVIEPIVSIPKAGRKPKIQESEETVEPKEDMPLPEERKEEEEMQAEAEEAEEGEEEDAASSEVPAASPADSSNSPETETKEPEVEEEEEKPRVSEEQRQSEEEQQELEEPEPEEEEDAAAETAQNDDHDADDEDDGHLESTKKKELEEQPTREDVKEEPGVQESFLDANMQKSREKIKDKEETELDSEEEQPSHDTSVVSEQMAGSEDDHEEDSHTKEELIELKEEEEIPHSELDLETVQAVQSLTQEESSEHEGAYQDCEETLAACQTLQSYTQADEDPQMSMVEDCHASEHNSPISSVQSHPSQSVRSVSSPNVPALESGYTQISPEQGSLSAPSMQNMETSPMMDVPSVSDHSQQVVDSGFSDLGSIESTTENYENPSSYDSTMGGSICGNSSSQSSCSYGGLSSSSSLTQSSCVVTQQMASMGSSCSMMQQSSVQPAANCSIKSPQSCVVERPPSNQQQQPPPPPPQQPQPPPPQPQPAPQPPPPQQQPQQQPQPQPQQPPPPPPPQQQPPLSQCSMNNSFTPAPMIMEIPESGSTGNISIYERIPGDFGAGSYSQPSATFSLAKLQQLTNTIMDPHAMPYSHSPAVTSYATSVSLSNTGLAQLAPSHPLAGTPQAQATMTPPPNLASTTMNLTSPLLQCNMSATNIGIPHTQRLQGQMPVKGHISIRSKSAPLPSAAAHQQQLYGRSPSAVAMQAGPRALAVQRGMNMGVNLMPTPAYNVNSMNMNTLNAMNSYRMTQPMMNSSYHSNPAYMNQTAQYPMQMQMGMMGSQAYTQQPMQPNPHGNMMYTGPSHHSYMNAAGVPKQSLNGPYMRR
Experimental: Inhibition of KAT6A enzymatic activity by test compounds was determined using a radiometric 384-well format assay. A 10-point serial dilution of the test compounds were conducted in DMSO and then a volume of 200 nL was transferred into 384-well assay plate by Echo (Labcyte). 10 μL of 2× enzyme solution (5 nM KAT6A (Active Motif) in assay buffer (50 mM Tris-HCl pH 8.0, 50 mM KCl, 0.1 mM EDTA, 5% glycerol, 1 mM DTT)) was dispensed into assay plate except for low control wells, in which 10 μL of assay buffer was transferred. The plate was incubated at room temperature for 15 min before addition of 10 μL of 2×[^3H]-acetyl coenzyme A (Ac-CoA) and substrate peptide mix solution (500 nM (KAT6A) [^3H]-Ac-CoA (PerkinElmer) and 800 nM (KAT6A) biotinylated H4(1-30) peptide (GL Biochem) in assay buffer) to each well to start reaction. The plate was incubated at room temperature for 60 min (KAT6A), and then the reaction was stopped by adding 10 μL of stop solution (cold Ac-CoA (Cayman) in 1× assay buffer). 25 μL of reaction in each well was transferred to Flashplate (PerkinElmer) and incubated for another 1 hour at room temperature. The plate was read on Microbeta and the inhibition percentage of each compound treated well was calculated based on the equation in h %=(Max−sample)/(Max−Min)*100 where Max is signal from high control wells with enzyme, and Min is signal from low control wells with assay buffer only. The in h % data were further fit in XL-Fit to obtain IC50 values using a 4-parameter logistic (4PL) sigmoidal curve model.

Caco-2 cells = assay: Permeability in Caco-2 Assay; type: in vitro ADME; settings: comparison from Table 4 (vs compound 47 or vs PF-9363)
Experimental: as §1

Compound | solubility kinetic at 24 h [1] [µM] | efflux ratio at 2 h, 2 μM [2] | Papp A→B at 2 h, 2 μM [2] [×10⁻⁶ cm/s] | IC50 (KAT6A) [µM] | kinetic solubility compared with the otherwise identical compound having X group as carbon ([1]; comparison from Table 3) | permeability compared with a reference compound (Caco-2 cells)
COc1cccc(OC)c1S(=O)(=O)Nc1noc2cc(Oc3ccccn3)c3c(c12)OCCC3 [Compound 24, 2,6-dimethoxy-N-(5-(pyridin-2-yloxy)-3,4-dihydro-2H-chromeno[8,7-d]isoxazol-9-yl)benzenesulfonamide] | 189 (≈ 91.4 µg/mL) | 3.2 | 12.9 | < 0.01 | – | –
COc1cccc(OC)c1S(=O)(=O)Nc1noc2cc(Oc3nccs3)c3c(c12)OCCC3 [Compound 35, 2,6-dimethoxy-N-(5-(thiazol-2-yloxy)-3,4-dihydro-2H-chromeno[8,7-d]isoxazol-9-yl)benzenesulfonamide] | 165 (≈ 80.8 µg/mL) | – | 8.59 | < 0.01 | improved kinetic solubility | improved permeability
COc1cccc(OC)c1S(=O)(=O)Nc1noc2cc(Oc3ccccn3)cc(OC(F)F)c12 [Compound 22, N-(4-(difluoromethoxy)-6-(pyridin-2-yloxy)benzo[d]isoxazol-3-yl)-2,6-dimethoxybenzenesulfonamide] | – | 6.87 | 3.45 | 0.01 to 0.1 | – | –
COc1cc(C)nc(OC)c1S(=O)(=O)Nc1noc2cc(Sc3nccs3)cc(OC)c12 [Compound 68, 2,4-dimethoxy-N-(4-methoxy-6-(thiazol-2-ylthio)benzo[d]isoxazol-3-yl)-6-methylpyridine-3-sulfonamide] | – | 9.74 | 2.29 | 0.01 to 0.1 | – | –
COc1ccccc1S(=O)(=O)Nc1noc2cc(Oc3nccs3)c3c(c12)OCCCC3 [Compound 63] | – | 2.88 | 6.48 | < 0.01 | – | –

Now from value to compound, other results behind:

solubility kinetic at 24 h [1] [µM] | efflux ratio at 2 h, 2 μM [2] | Papp A→B at 2 h, 2 μM [2] [×10⁻⁶ cm/s] | IC50 (KAT6A) [µM] | Compound | kinetic solubility compared with the otherwise identical compound having X group as carbon ([1]; comparison from Table 3) | permeability compared with a reference compound (Caco-2 cells)
3.34 (≈ 1.61 µg/mL) | 15.3 | 2.66 | < 0.01 | COc1cccc(OC)c1S(=O)(=O)Nc1noc2cc(Cc3ccccn3)c3c(c12)OCCC3 [Compound 46, 2,6-dimethoxy-N-(5-(pyridin-2-ylmethyl)-3,4-dihydro-2H-chromeno[8,7-d]isoxazol-9-yl)benzenesulfonamide] | – | –
– | 4.25 | 6.83 | < 0.01 | COc1cccc(OC)c1S(=O)(=O)Nc1noc2cc(Sc3nccs3)cc(OC)c12 [Compound 66, 2,6-dimethoxy-N-(4-methoxy-6-(thiazol-2-ylthio)benzo[d]isoxazol-3-yl)benzenesulfonamide] | – | –
16.1 (≈ 7.58 µg/mL) | 59.6 | 0.439 | < 0.01 | COc1cccc(OC)c1S(=O)(=O)Nc1noc2cc(Cn3cccn3)c3c(c12)OCCC3 [Compound 14, N-(5-((1H-pyrazol-1-yl)methyl)-3,4-dihydro-2H-chromeno [8,7-d]isoxazol-9-yl)-2,6-dimethoxybenzenesulfonamide] | – | –
– | 3.66 | 11.8 | 0.01 to 0.1 | COc1cccc(OC)c1S(=O)(=O)Nc1noc2cc(Oc3ccccn3)cc(OC)c12 [Compound 9, 2,6-dimethoxy-N-(4-methoxy-6-(pyridin-2-yloxy)benzo[d]isoxazol-3-yl)benzenesulfonamide] | – | –
12.1 (≈ 5.9 µg/mL) | 12.3 | 3.53 | < 0.01 | COc1cccc(OC)c1S(=O)(=O)Nc1noc2cc(Cc3nccs3)c3c(c12)OCCC3 [Compound 47] | – | –
